Where two headings read alike, the source gives them in different places. One block for each molecule: values may come before it.
How the values were obtained:
[1] = for k1^Stress / k2^Stress / k3^Stress: adenosine stress; for k1^Rest: ± SD from fit covariance
Description: Data acquisition. PET scans can be performed using, for example, an Advance™ PET scanner (GE Medical Systems, Waukesha, Wis.) operated in 2D mode, though other PET scanners are contemplated within the scope of this invention. Human subjects, when used, were positioned with arms down and a strap was placed across the chest to immobilize the subject and minimize movement artifacts. Transmission scans (^68Ge rod source) were acquired to position the heart in the field of view (2 min) and for attenuation correction (10 min). […] Scans performed during stress were started at the midpoint of a 6 minute adenosine infusion (0.14 mg kg^−1 min^−1) while vital signs including pulse rate, blood pressure and oxygen saturation were assessed by a physician using standard monitoring equipment.
Dynamic PET data were acquired with a waiting period of about 50-71 min between rest and stress emission scans. Imaging protocols were designed to allow rest and stress components to be added to emulate rapid dual-injection data as further described herein. Rest and stress emission scan data were acquired separately using the following temporal sampling schedule for the first 10 minutes: (12×5 s, 6×10 s, 6×30 s and 5×1 min). For rest scans, this schedule was repeated for another 10 minutes for a total emission scan duration of about 20 minutes. This provided equal duration stress timeframes that could be shifted in time and added to the rest timeframes in order to mimic a rapid dual-injection acquisition while retaining standard single-injection emission scan sequences.
Data processing. According to one embodiment, images were reconstructed using filtered back-projection with a Hanning window cutoff at 1.56 cycles cm^−1. The 128×128 image matrices had 4.3 mm voxels and a slice thickness of 4.25 mm. Data were pre-corrected for attenuation, scatter and randoms prior to reconstruction, but not for radioactive decay because it was included in the kinetic modeling equations. A reference image for each scan was created by summing up timeframes with steady uptake of tracer in the myocardium and used as a guide for reorienting to cardiac short-axis (SA) images. The SA images for all rest and stress timeframes in each subject were co-registered using a template showing the endocardial and epicardial boundaries. Based on visual comparison of an average mid-ventricular slice from each timeframe, the entire SA image volume was shifted manually to align with the template in the plane perpendicular to the SA of the heart. Co-registration was not performed in timeframes where myocardium and blood pool were indistinguishable.
Myocardial regions were selected based on a 17-segment model of the American Society of Nuclear Cardiology (Schelbert et al. 2003), known to those of ordinary skill in the art. On each slice of a reference image, endocardial and epicardial boundaries were drawn and the angle of insertion of the right ventricle into the septum was selected as a landmark for division into sectors. The myocardium was divided into one apical region, four sectors in the apical mid-ventricle, six sectors in the basal mid-ventricle and six sectors in the base of the heart. Blood pool regions were drawn manually in each subject with size restricted to limit partial volume effect and spillover of activity from the myocardium. In each subject, the same regions were applied to all co-registered rest and stress timeframes.

[2] = Arterial blood sampling with octanol separation of freely available and bound fractions; assay type: in vivo, dogs; conditions: 10 min. after injection; remaining activity albumin bound
Description: Arterial blood sampling. Blood samples (approximately 0.4-0.5 ml) were drawn from an AV shunt on a schedule similar to the scanning schedule for determination of the arterial input functions. […] Each sample was weighed and counted in a well counter soon after withdrawal, and corrections for radioactive decay were applied to recover time-activity curves for the whole-blood and freely-available arterial input functions for use with compartment modeling. […] While this could potentially complicate measurement of the input function for each tracer; however, at 10 min. after injection the octanol-extractable fraction of PTSM in the blood was only ˜1%, with the remaining activity albumin bound.

[3] = emulated dual-injection, background subtraction, one typical myocardial region
[4] = emulated dual-injection, combined modeling, one typical myocardial region
[5] = separate single-injection, one typical myocardial region

k1^Stress [1, 3]: 3.50 ± 0.32 mL/min/g
k2^Stress [1, 3]: 0.80 ± 0.17
k3^Stress [1, 3]: 0.24 ± 0.04
k1^Stress [1, 4]: 3.44 ± 0.32 mL/min/g
k2^Stress [1, 4]: 0.79 ± 0.17
k3^Stress [1, 4]: 0.24 ± 0.04
k1^Stress [1, 5]: 3.33 ± 0.27 mL/min/g
k2^Stress [1, 5]: 0.69 ± 0.12
k3^Stress [1, 5]: 0.20 ± 0.03
k1^Rest ([1]; emulated dual-injection data, background subtraction, one typical myocardial region): 0.92 ± 0.05 mL/min/g
k1^Rest ([1]; emulated dual-injection data, combined modeling, 20 min, one typical myocardial region): 0.93 ± 0.05 mL/min/g
k2^Rest [1, 3]: 0.13 ± 0.04
k3^Rest [1, 3]: 0.08 ± 0.07
k4^Rest [1, 3]: 0.47 ± 0.02
k2^Rest [1, 4]: 0.14 ± 0.04
k3^Rest [1, 4]: 0.11 ± 0.06
k4^Rest [1, 4]: 0.47 ± 0.02
k1^Rest ([1]; separate single-injection, first 10 min of data, one typical myocardial region (FIG. 5)): 0.92 ± 0.05 mL/min/g
k2^Rest [1, 5]: 0.13 ± 0.04
k3^Rest [1, 5]: 0.08 ± 0.07
k4^Rest [1, 5]: 0.47 ± 0.02
Compound: [13NH3] [^13N-ammonia]

Compound: CNC(=S)NN=CC(C)=NNC(=S)NC.[Cu] [PTSM, copper-pyruvaldehyde-bis[N4-methylthiosemicarbazone]]
octanol-extractable fraction in the blood [2]: roughly 1%

Reference: patent US7848557B2, “Rapid multi-tracer PET imaging systems and methods” (priority 2007, dated 2010)
